Earlier results as cited in patent US5888536A (Chinoin Ltd., priority 1994, dated 1999).

C#CCN(C)[C@H](C)Cc1ccccc1 [selegilin, (-)-[N-α-dimethyl-N-(2-propynylphenylethylamine)]]
solubility in chloroform (chloroform): 1 g/5 ml | solubility in methanol (methanol): 1 g/3 ml | solubility in water (water): 1 g/3 ml
